Patent US20240335462A1, “SULFUR/PHOSPHORUS-CONTAINING ARYL COMPOUND AND APPLICATION THEREOF” (MEDSHINE DISCOVERY INC., priority 2021, published 2024)

Tested on: acute colitis induced by CD40 antibody
Assay: Mouse model of acute colitis induced by CD40 antibody
Type: in vivo, CB-17 SCID mice
Design: DAI score: scale not given here
Conditions: mean
Experimental: The purpose of this experiment was to evaluate the alleviating effect of the compound on colitis in a mouse model induced by CD40 antibody.
CB-17 SCID mice were randomly divided into groups. Each group consisted of 6 mice, which received an intraperitoneal injection (IP) of CD40 antibody (80 μg per mouse) on Day 0. The positive control drug IL-12 P40 antibody and the test compound were administered from Day-1 to Day 4, with Day 5 being the endpoint of the experiment. The positive control drug IL-12 P40 antibody was administered via intraperitoneal injection (IP) once every three days; the test compound was administered by gavage (PO) twice a day (BID).
The compounds were all prepared into a clear solution with 10% DMSO+10% solutol+80% (10% HP-3-CD) as a solvent for PO (oral gavage) administration. Administration volume parameters: 10 mL/kg based on the body weight of the mice.
IL-12 P40 antibody and the test compound were administered from Day-1 to Day 4. On Day 0, 30 minutes after administration, 200 μL of CD40 antibody (4 mg/kg) was intraperitoneally injected, while mice in the blank control group were intraperitoneally injected with 200 μL of DPBS. Body weight was recorded and feces were scored during the experiment.
Fecal scoring involved placing each mouse individually in a specially designed cage for about 10 minutes for scoring. The fecal scoring criteria were as per Table 27.
If blood is observed in the feces or around the anus, occult blood testing is not conducted. For the remaining mice without visible bloody stools, feces are collected for occult blood testing. Occult blood scoring is based on the assumption that the daily test results for the mice in the Normal group are 0. Each day, the fecal samples of four mice from the blank control group are observed for the time taken to develop color on the occult blood test strips. The shortest time required for color development in the feces of these four mice is set as the daily threshold. If the feces develop color before this time point and the color intensifies within 1 to 2 minutes, a score of 2 is assigned.
The body weight and Disease Activity Index (DAI) scores of the animals were recorded daily to assess the disease progression in each group and the effect of the test compound on the disease. The daily Disease Activity Index (DAI) score consists of three parts, with specific criteria referenced in Table 27.

Structure (SMILES) | DAI score (50 mg/kg PO BID, Day 0) | Weight change rate (%) (50 mg/kg PO BID, Day 0) | DAI score (50 mg/kg PO BID, Day 1) | Weight change rate (%) (50 mg/kg PO BID, Day 1) | DAI score (50 mg/kg PO BID, Day 2) | Weight change rate (%) (50 mg/kg PO BID, Day 2) | DAI score (50 mg/kg PO BID, Day 3) | Weight change rate (%) (50 mg/kg PO BID, Day 3) | DAI score (50 mg/kg PO BID, Day 4) | Weight change rate (%) (50 mg/kg PO BID, Day 4) | DAI score (50 mg/kg PO BID, Day 5) | Weight change rate (%) (50 mg/kg PO BID, Day 5) | DAI score (50 mg/kg PO BID, Day -1) | Weight change rate (%) (50 mg/kg PO BID, Day -1) | further results
CNC(=O)c1nnc(NC(=O)C2CC2)cc1Nc1cccc(-c2ncc(S(=N)(=O)C(C)C)cn2)c1OC.Cl (single isomer, unassigned) [Hydrochloride of WX-011A] | 0.33 | 100.63% | 1.00 | 99.54% | 1.83 | 97.69% | 0.67 | 100.43% | 0.50 | 100.96% | 1.17 | 99.34% | 0.00 | 100.00% | DAI score (30 mg/kg PO BID, Day 0): 0.17; Weight change rate (%) (30 mg/kg PO BID, Day 0): 100.60%; DAI score (30 mg/kg PO BID, Day 1): 1.00; Weight change rate (%) (30 mg/kg PO BID, Day 1): 100.01%; DAI score (30 mg/kg PO BID, Day 2): 2.17; Weight change rate (%) (30 mg/kg PO BID, Day 2): 95.93%; DAI score (30 mg/kg PO BID, Day 3): 0.83; Weight change rate (%) (30 mg/kg PO BID, Day 3): 98.85%; DAI score (30 mg/kg PO BID, Day 4): 0.50; Weight change rate (%) (30 mg/kg PO BID, Day 4): 99.69%; DAI score (30 mg/kg PO BID, Day 5): 1.00; Weight change rate (%) (30 mg/kg PO BID, Day 5): 97.07%; DAI score (30 mg/kg PO BID, Day -1): 0.00; Weight change rate (%) (30 mg/kg PO BID, Day -1): 100.00%
CNC(=O)c1cnc(NC(=O)C2CC2)cc1Nc1cccc(-c2ccc(S(=O)(=O)C(C)C)cn2)c1OC.O=S(=O)(O)O [Sulfate of WX-020] | 0.33 | 100.48% | 1.17 | 98.37% | 2.67 | 95.22% | 0.83 | 100.73% | 0.33 | 100.81% | 0.50 | 100.44% | 0.00 | 100.00% | DAI score (100 mg/kg PO BID, Day 0): 0.33; Weight change rate (%) (100 mg/kg PO BID, Day 0): 100.78%; DAI score (100 mg/kg PO BID, Day 1): 1.33; Weight change rate (%) (100 mg/kg PO BID, Day 1): 99.88%; DAI score (100 mg/kg PO BID, Day 2): 1.67; Weight change rate (%) (100 mg/kg PO BID, Day 2): 97.14%; DAI score (100 mg/kg PO BID, Day 3): 0.50; Weight change rate (%) (100 mg/kg PO BID, Day 3): 99.65%; DAI score (100 mg/kg PO BID, Day 4): 0.33; Weight change rate (%) (100 mg/kg PO BID, Day 4): 101.16%; DAI score (100 mg/kg PO BID, Day 5): 0.33; Weight change rate (%) (100 mg/kg PO BID, Day 5): 100.90%; DAI score (100 mg/kg PO BID, Day -1): 0.00; Weight change rate (%) (100 mg/kg PO BID, Day -1): 100.00%
